Tests used:
EGFR del746_750 = EGFR del746_750 (Homo sapiens (Human), UniProt P00533, DEL746-750); assay: SelectScreen Lantha method (Eu-anti-GST antibody/tracer) for EGFR del746_750; assay type: binding; conditions: compound at 100 nM; read-out: % Inhibition against EGFR del745_750
Description: SelecteScreen's Lantha® method from Life Technologies was used to measure compound's activities in inhibition of EGFR del746_750.
Test Compounds are screened in 1% DMSO (final) in the well. For 10 point titrations, 3-fold serial dilutions are conducted from the starting concentration. • Components for EGFR del745_750: • Kinase Buffer A: 50 mM HEPES pH 7.5, 0.01% BRIJ-35, 10 mM MgCl2, 1 mM EGTA • Kinase/Antibody Mixtures for EGFR del745_ 750: EGFR del745_ 750 10 nM, Antibody: Eu-anti-GST 2 nM, Tracer 199 10 nM, Inhibitor: SB202190 88.2 nM, All Kinase/Antibody Mixtures are diluted to a 2× working concentration in the appropriate Kinase Buffer • Tracer: The 4× AlexaFluor® labeled Tracer is prepared in Kinase Buffer.
To start the measurement, the following components are added to individual wells of bar-coded, low volume, white 384-well plate (Greiner Cat. #784207): • 1. 160 nL—100× Test Compound in 100% DMSO. • 2. 3.84 μL—Kinase Buffer: • 3. 8.0 μL—2× Kinase/Antibody Mixture • 4. 4.0 μL—4× Tracer The mixture above is then shaken for 30-second following by 60-minute incubation at room temperature. Finally the plate is read on fluorescence plate reader.
(§1) The Z′-LYTE assay was carried out with ATP concentration at Km. The scale utilized in Tables 2-6 is as follows: ++ more than 50% inhibition and + less than 50% inhibition.

EGFR (ErbB1) T790M = EGFR (ErbB1) T790M (Homo sapiens (Human), UniProt P00533, T790M); assay: Z'-LYTE kinase inhibition assay against EGFR T790M; assay type: biochemical; conditions: compound at 100 nM; ATP concentration at Km
Description: (§2) Inhibitory activities of compounds against BTK, EGFR T790M, EGFR L858R, and EGFR L858R/T790M were measured using Z′-LYTE® Method from Life Technologies as briefly described in the following.
(§3) Test Compounds are screened in 1% DMSO (final) in the well. For 10 point titrations, 3-fold serial dilutions are conducted from the starting concentration. All ATP Solutions are diluted to a 4× working concentration in Kinase Buffer (50 mM HEPES pH 7.5, 0.01% BRIJ-35, 10 mM MgCl2, 1 mM EGTA). Peptide/Kinase Mixtures are diluted to a 2× working concentration in the appropriate Kinase Buffers as described below. • (i) Peptide/Kinase Mixtures for measurement of EGFR (ErbB1) L858R: • The 2×EGFR (ErbB1) L858R/Tyr 04 mixture is prepared in 50 mM HEPES pH 7.5, 0.01% BRIJ-35, 10 mM MgCl2, 4 mM MnCl2. 1 mM EGTA, 2 mM DTT. The final 10 μL Kinase Reaction consists of 0.2-1.68 ng EGFR (ErbB1) L858R and 2 μM Tyr 04 in 50 mM HEPES pH 7.5, 0.01% BRIJ-35, 10 mM MgCl2, 2 mM MnCl2, 1 mM EGTA, 1 mM DTT. After the 1 hour Kinase Reaction incubation, 5 μL of a 1:64 dilution of Development Reagent B is added. • (ii) Peptide/Kinase Mixtures for measurement of EGFR (ErbB1) T790M: The 2×EGFR (ErbB1) T790M/Tyr 04 mixture is prepared in 50 mM HEPES pH 6.5, 0.01% BRIJ-35, 10 mM MgCl2, 1 mM EGTA, 0.02% NaN3. The final 10 μL Kinase Reaction consists of 3.9-30.2 ng EGFR (ErbB1) T790M and 2 μM Tyr 04 in 50 mM HEPES pH 7.0, 0.01% BRIJ-35, 10 mM MgCl2, 1 mM EGTA, 0.01% NaN3. After the 1 hour Kinase Reaction incubation, 5 μL of a 1:64 dilution of Development Reagent B is added. • (iii) Peptide/Kinase Mixtures for measurement of EGFR (ErbB1) L858R/T790M: The 2×EGFR (ErbB1) T790M L858R/Tyr 04 mixture is prepared in 50 mM HEPES pH 6.5, 0.01% BRIJ-35, 10 mM MgCl2, 1 mM EGTA, 0.02% NaN3. The final 10 μL Kinase Reaction consists of 0.38-4.22 ng EGFR (ErbB1) T790M L858R and 2 μM Tyr 04 in 50 mM HEPES pH 7.0, 0.01% BRIJ-35, 10 mM MgCl2, 1 mM EGTA, 0.01% NaN3. After the 1 hour Kinase Reaction incubation, 5 μL of a 1:64 dilution of Development Reagent B is added. • (iv) Peptide/Kinase Mixtures for measurement of BTK: The 2×BTK/Tyr 01 mixture is prepared in 50 mM HEPES pH 7.5, 0.010/BRIJ-35, 10 mM MgCl2, 1 mM EGTA. The final 10 μL Kinase Reaction consists of 1.04-10.4 ng BTK and 2 μM Tyr 01 in 50 mM HEPES pH 7.5, 0.01% BRIJ-35, 10 mM MgCl2, 1 mM EGTA. After the 1 hour Kinase Reaction incubation, 5 μL of a 1:256 dilution of Development Reagent B is added.
(§4) Reaction starts by 30-second shaking of mixture consisting of 2.5 μL 4× test compound, 5 μL 2× kinase reaction mixture and 2.5 μL 4×ATP Solution on Bar-coded Corning, low volume NBS, black 384-well plate (Corning Cat. #3676). Then the mixture is incubated for 60-minute at room temperature for the kinase reaction, followed by addition of 5 μL of a 1:1024 dilution of development reagent A and 30-second plate shake. The mixture is then incubated for another 60-minute at room temperature for development reaction. Finally fluorescence is read by plate reader.
as §1

EGFR (ErbB1) L858R = EGFR (ErbB1) L858R (Homo sapiens (Human), UniProt P00533, L858R); assay: Z'-LYTE kinase inhibition assay against EGFR L858R; assay type: biochemical; conditions: compound at 100 nM; ATP concentration at Km
Description: as §2, §3, §4, §1

BTK = BTK (Homo sapiens (Human), UniProt Q06187); assay: Z'-LYTE kinase inhibition assay against BTK; assay type: biochemical; conditions: for inhibition at 0.1 µM: compound at 100 nM, ATP concentration at Km; for IC50: series of concentrations, GraphPad Prism 5
In short: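 Z′-LYTE FRET readout: 1.04-10.4 ng BTK with 2 μM Tyr 01 peptide, ATP at Km, in 50 mM HEPES pH 7.5, 10 mM MgCl2, 1 mM EGTA, 0.01% BRIJ-35, 1% DMSO. 60 min kinase reaction at room temperature, then 60 min development; IC50 from 10-point, 3-fold titrations.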

EGFR (ErbB1) L858R/T790M = EGFR (ErbB1) L858R/T790M (Homo sapiens (Human), UniProt P00533, L858R/T790M); assay: Z'-LYTE kinase inhibition assay against EGFR L858R/T790M; assay type: biochemical; conditions: compound at 100 nM; ATP concentration at Km
Description: as §2, §3, §4, §1

OCI-Ly10 cells = assay: OCI-Ly10 cell proliferation assay (Alamar Blue, 72 hours); assay type: cell-based; conditions: Homo sapiens
Description: OCI-Ly10 cells were cultured in Iscove's DMEM supplemented with 20% fetal bovine serum and 1× penicillin/streptomycin/glutamine. The cells were maintained in T175 flasks under 5% CO2 in a 37 ° C. humidified incubator for 5 days prior to plating and assay.
Cells were pooled by centrifugation (200 ref, 8 minutes) and resuspended in fresh medium to a concentration of 2.00E+05 cells/ml. 200 µl of the cell suspension was added to each well (40,000 cells/well) of a black-walled 96 well plate to which 1 μl of compound (n=3 per concentration) in 100% DMSO (0.5% final concentration) was added per well. Vehicle and cell free wells were also included in the assay. The dosed cells were cultured under normal conditions for 72 hours.
Cell proliferation is measured using the dye Alamar Blue (resazurin). Resazurin is reduced to resorufin by cellular enzymes and is fluorescent (544 nm excitation, 612 nm emission). Fluorescence intensity is proportional to cell number. Resazurin was prepared in PBS to a stock concentration of 440 μM. 40 μl of the 440 μM resazurin stock solution was added 3 hours prior to the 72 hour termination of the assay. The plate was returned to normal culture conditions and fluorescence measurements were collected using a Cytation3 multimode plate reader (Biotek) at 72 hours.
The scale utilized in Table 8 is as follows: ++ less than 50 nM and + greater than 50 nM.

BTK, sequence (Q06187 whole entry): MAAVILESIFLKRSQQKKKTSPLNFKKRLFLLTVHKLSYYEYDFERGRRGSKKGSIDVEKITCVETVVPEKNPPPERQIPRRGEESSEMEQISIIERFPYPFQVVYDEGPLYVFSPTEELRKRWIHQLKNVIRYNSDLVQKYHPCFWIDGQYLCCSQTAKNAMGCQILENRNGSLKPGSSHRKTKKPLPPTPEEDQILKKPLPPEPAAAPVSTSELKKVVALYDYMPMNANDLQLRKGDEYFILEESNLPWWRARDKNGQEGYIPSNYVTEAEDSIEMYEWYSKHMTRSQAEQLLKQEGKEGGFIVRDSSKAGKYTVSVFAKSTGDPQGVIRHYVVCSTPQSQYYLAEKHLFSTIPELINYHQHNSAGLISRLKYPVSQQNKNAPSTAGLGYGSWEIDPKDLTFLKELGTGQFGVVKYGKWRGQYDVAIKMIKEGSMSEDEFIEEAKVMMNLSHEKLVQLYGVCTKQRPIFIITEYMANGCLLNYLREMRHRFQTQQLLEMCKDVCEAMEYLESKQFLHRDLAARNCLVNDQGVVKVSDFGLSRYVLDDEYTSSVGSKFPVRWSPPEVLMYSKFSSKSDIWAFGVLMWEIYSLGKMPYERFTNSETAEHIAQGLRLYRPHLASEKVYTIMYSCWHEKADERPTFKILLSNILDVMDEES
EGFR (ErbB1) T790M, sequence (P00533 25-1210 T790M): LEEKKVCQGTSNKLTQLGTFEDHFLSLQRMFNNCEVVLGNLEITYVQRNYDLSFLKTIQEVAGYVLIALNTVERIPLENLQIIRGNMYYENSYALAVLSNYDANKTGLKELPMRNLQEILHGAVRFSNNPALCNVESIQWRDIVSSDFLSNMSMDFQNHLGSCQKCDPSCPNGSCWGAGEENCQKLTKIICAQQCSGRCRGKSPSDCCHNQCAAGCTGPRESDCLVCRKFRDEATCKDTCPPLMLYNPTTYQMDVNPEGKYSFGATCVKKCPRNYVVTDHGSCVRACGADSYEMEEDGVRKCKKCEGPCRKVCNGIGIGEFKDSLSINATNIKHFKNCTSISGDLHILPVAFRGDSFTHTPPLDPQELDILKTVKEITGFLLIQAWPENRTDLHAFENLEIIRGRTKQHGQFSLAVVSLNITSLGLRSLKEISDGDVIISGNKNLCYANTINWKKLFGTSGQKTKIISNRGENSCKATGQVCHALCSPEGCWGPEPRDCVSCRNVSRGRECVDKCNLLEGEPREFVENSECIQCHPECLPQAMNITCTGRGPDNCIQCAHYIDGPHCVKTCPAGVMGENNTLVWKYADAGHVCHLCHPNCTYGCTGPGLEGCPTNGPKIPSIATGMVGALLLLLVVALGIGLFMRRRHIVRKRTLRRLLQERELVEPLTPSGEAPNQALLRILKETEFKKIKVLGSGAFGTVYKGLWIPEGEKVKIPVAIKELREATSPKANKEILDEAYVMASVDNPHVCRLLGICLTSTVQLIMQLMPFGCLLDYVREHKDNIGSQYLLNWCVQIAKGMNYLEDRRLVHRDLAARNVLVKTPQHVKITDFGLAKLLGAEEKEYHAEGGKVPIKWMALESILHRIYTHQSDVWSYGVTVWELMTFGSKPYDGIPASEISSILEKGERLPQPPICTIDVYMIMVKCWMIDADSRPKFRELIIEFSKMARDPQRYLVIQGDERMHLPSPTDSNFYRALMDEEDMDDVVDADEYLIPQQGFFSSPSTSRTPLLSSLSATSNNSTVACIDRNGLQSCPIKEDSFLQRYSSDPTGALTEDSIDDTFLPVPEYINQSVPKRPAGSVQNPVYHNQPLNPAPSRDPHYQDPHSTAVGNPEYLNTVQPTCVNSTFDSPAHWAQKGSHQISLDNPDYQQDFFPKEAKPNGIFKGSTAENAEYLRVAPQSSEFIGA
EGFR (ErbB1) L858R, sequence (P00533 25-1210 L858R): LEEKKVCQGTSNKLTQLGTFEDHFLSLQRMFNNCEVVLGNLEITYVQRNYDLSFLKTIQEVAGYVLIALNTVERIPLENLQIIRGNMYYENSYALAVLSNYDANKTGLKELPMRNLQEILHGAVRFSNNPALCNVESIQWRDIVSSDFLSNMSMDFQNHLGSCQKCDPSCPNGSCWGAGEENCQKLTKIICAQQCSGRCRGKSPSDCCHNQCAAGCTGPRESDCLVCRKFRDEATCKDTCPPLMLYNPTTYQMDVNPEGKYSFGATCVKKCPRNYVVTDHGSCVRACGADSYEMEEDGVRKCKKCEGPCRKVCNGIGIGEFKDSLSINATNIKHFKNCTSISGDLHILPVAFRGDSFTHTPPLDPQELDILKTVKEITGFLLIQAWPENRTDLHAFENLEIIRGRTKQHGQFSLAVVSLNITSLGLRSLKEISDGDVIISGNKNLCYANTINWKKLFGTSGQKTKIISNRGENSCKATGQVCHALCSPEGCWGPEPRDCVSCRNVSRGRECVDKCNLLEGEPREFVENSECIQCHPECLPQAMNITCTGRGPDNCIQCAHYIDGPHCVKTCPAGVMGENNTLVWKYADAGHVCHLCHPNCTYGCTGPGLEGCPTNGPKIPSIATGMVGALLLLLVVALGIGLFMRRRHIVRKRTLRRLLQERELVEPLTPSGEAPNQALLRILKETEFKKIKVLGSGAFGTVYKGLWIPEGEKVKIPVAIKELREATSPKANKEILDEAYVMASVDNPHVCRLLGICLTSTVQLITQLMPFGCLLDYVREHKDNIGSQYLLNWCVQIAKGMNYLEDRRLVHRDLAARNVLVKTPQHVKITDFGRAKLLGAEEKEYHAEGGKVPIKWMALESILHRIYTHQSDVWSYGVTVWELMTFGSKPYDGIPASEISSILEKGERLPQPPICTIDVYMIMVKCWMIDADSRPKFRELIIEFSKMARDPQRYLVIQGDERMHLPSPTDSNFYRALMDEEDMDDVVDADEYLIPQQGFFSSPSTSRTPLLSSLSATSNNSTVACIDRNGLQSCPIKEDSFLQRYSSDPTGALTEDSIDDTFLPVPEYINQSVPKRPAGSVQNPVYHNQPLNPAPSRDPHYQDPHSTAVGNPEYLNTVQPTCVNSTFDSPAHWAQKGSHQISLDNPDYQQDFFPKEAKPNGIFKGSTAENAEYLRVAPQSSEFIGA
EGFR (ErbB1) L858R/T790M, sequence (P00533 25-1210 T790M/L858R): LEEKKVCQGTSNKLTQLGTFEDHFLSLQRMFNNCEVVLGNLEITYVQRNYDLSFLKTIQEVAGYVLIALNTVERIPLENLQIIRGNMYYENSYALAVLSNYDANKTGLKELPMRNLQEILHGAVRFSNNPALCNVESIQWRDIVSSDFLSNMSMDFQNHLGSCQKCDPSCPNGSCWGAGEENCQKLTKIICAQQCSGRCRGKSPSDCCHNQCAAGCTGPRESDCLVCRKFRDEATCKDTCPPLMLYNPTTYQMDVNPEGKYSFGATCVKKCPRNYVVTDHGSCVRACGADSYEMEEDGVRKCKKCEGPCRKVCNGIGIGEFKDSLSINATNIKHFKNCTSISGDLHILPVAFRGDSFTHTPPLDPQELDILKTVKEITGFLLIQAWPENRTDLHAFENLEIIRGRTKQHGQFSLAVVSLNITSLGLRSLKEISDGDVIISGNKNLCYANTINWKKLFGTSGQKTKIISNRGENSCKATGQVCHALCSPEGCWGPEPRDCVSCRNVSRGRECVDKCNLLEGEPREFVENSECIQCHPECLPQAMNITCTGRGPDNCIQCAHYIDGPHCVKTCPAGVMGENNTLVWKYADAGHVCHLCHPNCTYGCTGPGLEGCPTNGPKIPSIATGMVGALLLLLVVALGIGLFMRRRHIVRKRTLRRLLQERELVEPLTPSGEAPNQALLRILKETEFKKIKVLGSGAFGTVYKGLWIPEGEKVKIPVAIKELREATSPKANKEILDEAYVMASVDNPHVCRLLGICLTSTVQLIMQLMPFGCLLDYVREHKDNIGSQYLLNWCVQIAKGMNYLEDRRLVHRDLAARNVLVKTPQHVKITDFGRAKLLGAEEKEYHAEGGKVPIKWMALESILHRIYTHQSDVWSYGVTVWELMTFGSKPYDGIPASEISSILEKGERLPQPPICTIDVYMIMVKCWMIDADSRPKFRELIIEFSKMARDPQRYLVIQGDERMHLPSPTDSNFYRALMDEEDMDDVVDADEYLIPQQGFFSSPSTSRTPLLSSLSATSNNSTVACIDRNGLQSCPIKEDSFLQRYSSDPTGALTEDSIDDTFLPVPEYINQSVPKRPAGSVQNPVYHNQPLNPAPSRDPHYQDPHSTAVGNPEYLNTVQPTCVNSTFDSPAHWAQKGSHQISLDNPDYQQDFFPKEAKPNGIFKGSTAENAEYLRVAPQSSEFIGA

Row | Structure (SMILES) | inhibition at 0.1 µM (EGFR del746_750) [%] | inhibition at 0.1 µM (EGFR (ErbB1) T790M) [%] | inhibition at 0.1 µM (EGFR (ErbB1) L858R) [%] | inhibition at 0.1 µM (BTK) [%] | IC50 (BTK) [nM] | inhibition at 0.1 µM (EGFR (ErbB1) L858R/T790M) [%] | IC50 (OCI-Ly10 cells) [nM]
1 | C=CC(=O)Nc1cccc(-c2cc(-c3ccccc3Cl)cc3cnc(N)nc23)c1 [C003, N-(3-(2-amino-6-(2-chlorophenyl)quinazolin-8-yl)phenyl)acrylamide] | > 50 | < 50 | > 50 | > 50 | < 100 | < 50 | –
2 | C=CC(=O)Nc1cccc(-c2cc(-c3ccccc3Cl)cc3cncnc23)c1 [C013, N-(3-(6-(2-chlorophenyl)quinazolin-8-yl)phenyl)acrylamide] | > 50 | < 50 | > 50 | > 50 | < 100 | < 50 | –
3 | C=CC(=O)N1CCC(c2cc(-c3ccc(C(=O)Nc4cc(Cl)ccn4)cc3)n3cnccc23)C1 (stereo not drawn) [C064, 4-(5-(1-acryloylpyrrolidin-3-yl)pyrrolo[1,2-c]pyrimidin-7-yl)-N-(4-chloropyridin-2-yl)benzamide] | – | < 50 | < 50 | > 50 | < 100 | < 50 | –
4 | C=CC(=O)N1CCC(c2nc(-c3ccc(Oc4cc(C(F)(F)F)ccn4)cc3)n3c(N)nccc23)C1 (stereo not drawn) [C196, 1-(3-(5-amino-3-(4-((4-(trifluoromethyl)pyridin-2-yl)oxy)phenyl)imidazo[1,5-c]pyrimidin-1-yl)pyrrolidin-1-yl)prop-2-en-1-one] | – | – | – | > 50 | < 100 | – | < 50
5 | C=CC(=O)N1CCC(c2nc(-c3ccc(C(=O)Nc4ccccn4)cc3)n3c(N)ncnc23)C1 (stereo not drawn) [C197, 4-(8-(1-acryloylpyrrolidin-3-yl)-4-amino-imidazo[1,5-a][1,3,5]triazin-6-yl)-N-(pyridin-2-yl)benzamide] | – | – | – | > 50 | < 100 | – | < 50
6 | C=CC(=O)N1CCC(c2nc(-c3ccc(C(=O)Nc4cc(C5CC5)ccn4)cc3)n3c(N)ncnc23)C1 (stereo not drawn) [C199, 4-(8-(1-acryloylpyrrolidin-3-yl)-4-amino-imidazo[1,5-a][1,3,5]triazin-6-yl)-N-(4-cyclopropylpyridin-2-yl)benzamide] | – | – | – | > 50 | < 100 | – | < 50
7 | CC#CC(=O)N1CCC(c2nc(-c3ccc(C(=O)Nc4ccccn4)cc3)n3c(N)nccc23)C1 (stereo not drawn) [C204, 4-(5-amino-1-(1-(but-2-ynoyl)pyrrolidin-3-yl)imidazo[1,5-c]pyrimidin-3-yl)-N-(pyridin-2-yl)benzamide] | – | – | – | > 50 | < 100 | – | < 50
8 | C=CC(=O)N1CCC(c2nc(-c3ccc(Oc4cc(OC)ccn4)cc3)n3c(N)nccc23)C1 (stereo not drawn) [C210, 1-(3-(5-amino-3-(4-((4-methoxypyridin-2-yl)oxy)phenyl)imidazo[1,5-c]pyrimidin-1-yl)pyrrolidin-1-yl)prop-2-en-1-one] | – | – | – | > 50 | < 100 | – | < 50
9 | C=CC(=O)N1CCC(c2nc(-c3ccc(C(=O)Nc4ccccn4)c(F)c3)n3c(N)nccc23)C1 (stereo not drawn) [C230, 4-(1-(1-acryloylpyrrolidin-3-yl)-5-amino-imidazo[1,5-c]pyrimidin-3-yl)-2-fluoro-N-(pyridin-2-yl)benzamide] | – | – | – | – | < 100 | – | < 50
10 | C=CC(=O)N1CCCC(c2nc(-c3ccc(C(=O)Nc4ccccn4)cc3)n3c(N)nccc23)C1 (stereo not drawn) [C235, 4-(1-(1-acryloylpiperidin-3-yl)-5-amino-imidazo[1,5-c]pyrimidin-3-yl)-N-(pyridin-2-yl)benzamide] | – | – | – | – | < 100 | – | < 50
11 | CC#CC(=O)N1CCCC(c2nc(-c3ccc(C(=O)Nc4ccccn4)cc3)n3c(N)nccc23)C1 (stereo not drawn) [C236, 4-(5-amino-1-(1-(but-2-ynoyl)piperidin-3-yl)imidazo[1,5-c]pyrimidin-3-yl)-N-(pyridin-2-yl)benzamide] | – | – | – | – | < 100 | – | < 50
12 | C=CC(=O)N1CCC(c2nc(-c3ccc(C(=O)Nc4cc(C5CC5)ccn4)cc3)n3c(N)nccc23)C1 (stereo not drawn) [C238, 4-(1-(1-acryloylpyrrolidin-3-yl)-5-amino-imidazo[1,5-c]pyrimidin-3-yl)-N-(4-cyclopropylpyridin-2-yl)benzamide] | – | – | – | – | < 100 | – | < 50
13 | C=CC(=O)N1CCC(c2nc(-c3ccc(C(=O)Nc4cc(OC)ccn4)cc3)n3c(N)nccc23)C1 (stereo not drawn) [C240, 4-(1-(1-acryloylpyrrolidin-3-yl)-5-amino-imidazo[1,5-c]pyrimidin-3-yl)-N-(4-methoxypyridin-2-yl)benzamide] | – | – | – | – | < 100 | – | < 50
